In patent US20050054620A1, “Paricalcitol as a chemotherapeutic agent” (priority 2003, published 2005):

Assays:
[1] = system: HT-29 cells; test: Western blot of cell lysates; assay type: cell-based, human; settings: 10^−7M, 72 hrs
Protocol: Western blot analysis was used to determine the levels of proteins involved in cell cycle and differentiation. […] After centrifugation at 15,000×g for 15 min at 4° C., the suspension was collected. Protein concentrations were quantitated using the Bio-Rad assay (Bio-Rad Labolatories, Hercules, Calif.). […] The blots were developed using the Supersignal West Pico Chemiluminescent Substrate Kit (Pierce, Rockford, Ill.). In FIG. 4B, HT-29 cells were exposed to either paricalcitol (10^−7M) or 1,25(OH)2D3(10^−7M). Cell lysates were prepared after 72 hrs of culture and analyzed by Western blot. The Western blot was probed sequentially with antibodies for p27KIP1, p21WAF1, cyclin D1, c-myc and E-Cadherin (antibodies from Santa Cruz Biotechnology) as described in Example II. Control cells were treated with vehicle alone. The quantity of protein was normalized by comparison to the amount of GAPDH. In FIG. 4C, HT-29 and SW837 cells were cultured with either paricalcitol (10^−7M) or 1,25(OH)2D3 (10^−7M) for 72 hrs. Cell lysates were prepared and analyzed by Western blot which was probed sequentially with antibodies to COX-1 and COX-2 (Santa Cruz Biotechnology). Control cells were treated with vehicle alone. The amount of protein was normalized by comparison to the quantity of GAPDH.

[2] = system: 24-hydroxylase mRNA; test: RT-PCR of 24-hydroxylase mRNA, spleen mononuclear cells of VDR knock-out mice; assay type: cell-based; settings: cells from VDR−/− mice; 10^−8 M
Protocol: Expression of 24 hydroxylase mRNA was analysed by RT-PCR. The amounts of mRNA were normalized by comparison to 18S RNA. For the PCR analysis, RNA extraction and reverse transcription were done by TRIzole (Invitrogen, Carlsbad, Calif.) and reverse transcriptase (Promega, Madison, Wis.). A twenty-microliter volume of cDNA was prepared from 1 μg of RNA. cDNAs were amplified by PCR with specific primers for 24-hydroxylase and 18S. The cycle number was 25 for 18S and 32 for 24-hydroxylase. PCR product was separated on a 2% agarose gel, stained with ethidium bromide, and photographed.
Isolated spleens were injected with DMEM (Gibco BRL) plus 10% FCS and crushed with forceps to release cells. Mononuclear cells from bone marrow or spleen were separated by Ficoll-Hypaque density centrifugation (Amersham Pharmacia, Uppsala, Sweden).

[3] = system: U937 cells expressing PML-RARA (PR9); test: CD14 expression by flow cytometry, PR9 cells with zinc; assay type: cell-based, human; settings: paricalcitol 0.01 μM; 3 days; compared to PR9 without zinc
Protocol: (A) NB-4 myeloid leukemia cell lines were treated with paricalcitol (0.1 μM) and/or arsenic trioxide (0.6 μM) for 3 days. Control cells were treated with vehicle alone. Cell lysates were made and used for Western blot which was probed sequentially with antibodies to RARA to detect the fusion protein PML-RARα. (B) U937 cells were stably transfected with either the control MT vector (U937-PMT) or the PML-RARα cDNA under the control of the Zn2^+-inducible murine metallothionein 1 promoter (PR9). Cells were treated either with (+) or without (−) Zn for 2 days. Paricalcitol and/or arsenic trioxide of the indicated doses were added to the cells. Cell lysates were harvested and used for Western blot which was probed with antibodies to RARα to detect PML-RARα fusion protein ([…]). (C) U937-PMT and PR9 cells were treated either with or without Zn and with paricalcitol, and/or arsenic trioxide as indicated for 3 days, and CD14 expression was measured by flow cytometry.
Cell lines used in this study were obtained from American Type Culture Collection (Rockville, Md.) and were maintained according to their recommendations. Myeloid leukemia cell lines (HL-60, NB-4, THP-1, U937), lymphoma cell lines (Raji, Ramos, Daudi, Jurkat, Jeko-1, JUDHL), myeloma cell lines (RPMI-8226, ARH-77, NCI-H929), ovarian cancer cell lines and PC-3 prostate cell line were grown in RPMI 1640 with 10% FCS. […]

[4] = humans, cited from earlier work
[5] = Serum calcium in tumor-bearing nude mice; assay type: in vivo; settings: 100 ng/mouse i.p. 3 days a week, after 4 weeks; control 9.5±0.4, not significantly different (p=0.17)
Protocol: For the mouse studies, BNX nu/nu nude mice at 8 weeks of age were purchased from Harlan Sprangue Dawley, Inc. (Indianapolis, Ind.) and their care was in accord with the guidelines of Cedars-Sinai Research Institute. They were maintained in pathogen-free conditions with irradiated chow. A total of 1×10^6 HT-29 cells in 0.1 ml of Matrigel (Collaborative Biological Products, Bedford, Mass.) were injected s.c. into bilateral flanks of each mouse, resulting in the formation of two tumors per mouse. The mice were blindly randomized to the experimental and control groups. Treatment was started on the day after the injection of […] cells and continued for 6 weeks. The control mice (five) received diluant only and the experimental mice (five) received paricalcitol [100 ng/day, intraperitoneally, 3 days per week (M,W,F)]. Tumor sizes were measured every week and calculated by the formula: A (length)×B (width)×C (height)×0.5236. After 4 weeks, blood was collected for serum calcium. All mice were euthanized at the end of the study, and the tumors were fixed in 10% neutral buffered formalin and embedded in paraffin for histological analysis. The data were analyzed by Student's t test.
To measure the serum calcium levels in mice, Sigma Diagnostics calcium reagent (Sigma, MO) containing o-cresolphthalein, which complexes with calcium to form a purple colored complex, was used.

[6] = system: NB-4 cells; test: Soft agar colony assay (clonal proliferation); assay type: cell-based; settings: Homo sapiens, 336 h, colonies counted after 14 days, read-out: concentration that caused 50% inhibition (ED50) of clonal growth
Protocol: (§1) A soft agar colony assay was used to test the effect of paricalcitol and 1,25(OH)2D3 on various cancer cell lines. For the soft agar colony assay, trypsinized and washed single-cell suspensions of cells were enumerated and plated into 24 well flat bottom plates using a two-layer soft agar system with a total of 1×10^3 cells/well in a volume of […], as described previously (Kubota et al., supra, 1998).
(§2) Cell lines used in this study were obtained from American Type Culture Collection (Rockville, Md.) and were maintained according to their recommendations. Myeloid leukemia cell lines (HL-60, NB-4, THP-1, U937), lymphoma cell lines (Raji, Ramos, Daudi, Jurkat, Jeko-1, JUDHL) and myeloma cell lines (RPMI-8226, ARH-77, NCI-H929) were grown in RPMI 1640 with 10% FCS. Breast cancer cell lines (MCF-7, MDA-MB-231), brain cancer cell lines (U343, U118, U138, U373, U87), and colon cancer cell lines (HT-29, SW837, SW480, SW620, HCT116) were maintained in DMEM with 10% FCS. Endometrial carcinoma cell line, AN-3 was maintained in Alpha Minimum Essential Medium (a-MEM) with 10% FCS.

[7] = system: NCI-H929 cells; test: Soft agar colony assay (clonal proliferation); assay type: cell-based; settings: Homo sapiens, 336 h, colonies counted after 14 days, read-out: concentration that caused 50% inhibition (ED50) of clonal growth
Protocol: as §1, §2

Compound: C[C@H](/C=C/[C@H](C)C(C)(C)O)[C@H]1CC[C@H]2/C(=C/C=C3C[C@@H](O)C[C@H](O)C3)CCC[C@]12C [paricalcitol, 19-nor-1,25, (OH)2D3]
- decrease of COX-2 expression [1]: 40%
- decrease of c-myc expression [1]: ~40%
- decrease of cyclin D1 expression [1]: about 50%
- effect on COX-1 expression [1]: without affecting
- increase of E-cadherin [1]: about 6 fold
- increase of p21WAF1 protein level [1]: about 5 fold
- increase of p27KIP1 protein level [1]: ~6 fold
- induction of 24-hydroxylase [2]: not inducible
- differentiation (CD14) of PR9 cells cultured with zinc [3]: partially blocked
- peak serum levels [4]: 1850 pg/mL
- serum half-life ([4]; paricalcitol compared with 1,25(OH)2D3): similar
- serum calcium levels [5]: 10.2 ± 0.7 mg/dL
- EC50 [6]: 3.4 nM
- EC50 [7]: 0.02 nM
